Data taken from patent publication US10071035B2, “Use of benzyl alcohol as a defoaming agent” (Colgate-Palmolive Company, priority 2014, dated 2018).

Assays:
[1] = Defoaming of foam generated from aqueous 0.2% sodium lauryl sulfate solution in measuring cylinders; format: physicochemical; settings: three minutes after addition of 1 mL aliquot of defoaming agent to 0.2% SLS foam
Experimental: Three aqueous solutions of 0.2% sodium lauryl sulfate were prepared in 250 mL measuring cylinders by diluting 5 g of a 2% sodium lauryl sulfate stock solution with water to give a total volume of 50 mL. The solutions were agitated by swirling the measuring cylinders 12 times to generate foam. The volumes of foam generated were recorded. A 1 mL aliquot of defoaming agent was then added to each of the solutions at a rate of 0.01 mL/s. The defoaming agents investigated were benzyl alcohol, methanol, and water. Three minutes after the addition of the defoaming agent, the volumes of foam present in each vessel were recorded.

[2] = Time taken to defoam (batch to settle) under vacuum during manufacture of oral care composition; settings: composition B (0.3% benzyl alcohol) versus comparative composition A, 4 kg batch
Experimental: The compositions were manufactured as follows: • 1. The sorbitol was added to an SS vessel having a stirrer. The stirrer was started. The sorbitol was heated to 60-62° C. • 2. Half of the purified water was added to the SS vessel. • 3. The copolymer of methyl vinyl ether and maleic acid was added to the SS vessel and mixed. Mixing was continued until the copolymer of methyl vinyl ether and maleic acid was fully dispersed. • 4. The NaOH (50% solution) was added to the SS vessel and mixed for 5 minutes. • 5. The remaining purified water was added to the SS vessel. • 6. […] The pre-mix was added to the SS vessel. • 7. The resulting gel was mixed for 20 minutes at a temperature of 64-67° C. • 8. The gel was transferred to a mixer. The thickener silica was added to the mixer and mixed for 5 minutes. The mixer used in the present experiment was an Alpro mixer. • 9. The abrasive silica and titanium dioxide were added to the mixer and mixed under vacuum. Mixing was continued until the temperature reached 46° C. • 10. At 46° C., the flavor, triclosan and sodium lauryl sulfate granules were added to the mixture. If used, benzyl alcohol was also added at this stage. • 11. The resulting mixture was then stirred for 2 minutes. Vacuum was then applied. The time taken for the batch to settle was observed. • 12. After allowing the batch to settle, mixing was continued for a further 8 minutes. […]

SMILES	% reduction in foam after addition of defoaming agent [1] [%]	reduction of the defoaming time [2] [%]	reduction of the defoaming time ([2]; listed as benzyl alcohol)
OCc1ccccc1 [Benzyl alcohol, benzyl alcohol]	59.1	50	about 50%
CO [Methanol, methanol, reference compound]	74.5		
